A short description of series [1]: AUC (0 to infinity) in monkey at 0.5 mg/kg, iv. In kind it is ADME, organism-based, Macaca mulatta. The conditions noted are these: rhesus monkey, in vivo.
Series [2] has as its system Mus musculus. The series can be described thus: Antiarthritic activity against collagen-induced arthritis DBA1J mouse model at 15 to 30 mg/kg, sc measured after 21 days. The format is functional, organism-based. The conditions noted are these: dose lower […], dose upper 30.0 mg/kg, time 21.0 day.
Series [3] can be described thus: AUClast in monkey at 0.5 mg/kg, iv. In kind it is ADME, organism-based, Macaca mulatta. The conditions noted are these: rhesus monkey, in vivo.
A short description of series [4]: Bioavailability in monkey at 0.5 mg/kg, iv. The format is ADME, organism-based, Macaca mulatta. The conditions noted are these: rhesus monkey, in vivo.
Series [5] is described as follows: Cmax in dog at 5 mg/kg, po. The format is ADME, organism-based, Canis lupus familiaris. The following applies: in vivo.
A short description of series [6]: Cmax in mouse at 50 mg/kg, po. In kind it is ADME, organism-based. The following applies: in vivo.
A short description of series [7]: Half life in monkey at 0.5 mg/kg, iv. In kind it is ADME, organism-based, Macaca mulatta. The following applies: rhesus monkey, in vivo.
Series [8] is described as follows: Tmax in dog at 5 mg/kg, po. In kind it is ADME, organism-based, Canis lupus familiaris. The following applies: in vivo.
Series [9] concerns Rattus norvegicus. The series can be described thus: Antiarthritic activity against adjuvant-induced arthritis Lewis rat model assessed as improvement in arthritis symptoms at 50 mg/kg, po measured after 8 days in presence of methotrexate. The format is functional. The conditions noted are these: time 8 day.
Series [10] is described as follows: Bioavailability in dog at 0.5 mg/kg, iv. The following applies: in vivo. In kind it is ADME, organism-based, Canis lupus familiaris.
Series [11] in a line: AUC (0 to infinity) in mouse at 10 mg/kg, iv. In kind it is ADME, organism-based. The following applies: in vivo.
Series [12] in a line: Half life in mouse at 50 mg/kg, po. The following applies: in vivo. In kind it is ADME, organism-based.
Series [13] in a line: AUC (0 to infinity) in dog at 5 mg/kg, po. The format is ADME, organism-based, Canis lupus familiaris. The conditions noted are these: in vivo.
Series [14] can be described thus: Tmax in mouse at 50 mg/kg, po. In kind it is ADME, organism-based. The conditions noted are these: in vivo.
Series [15] in a line: Bioavailability in mouse at 10 mg/kg, iv. The format is ADME, organism-based. The following applies: in vivo.
Series [16] is described as follows: AUC (0 to infinity) in dog at 0.5 mg/kg, iv. In kind it is ADME, organism-based, Canis lupus familiaris. The following applies: in vivo.
The nature of series [17]: AUClast in mouse at 10 mg/kg, iv. The following applies: in vivo. In kind it is ADME, organism-based.
A short description of series [18]: AUC (0 to infinity) in monkey at 10 mg/kg, po. In kind it is ADME, organism-based, Macaca mulatta. The following applies: rhesus monkey, in vivo.
Series [19] in a line: AUClast in dog at 0.5 mg/kg, iv. In kind it is ADME, organism-based, Canis lupus familiaris. The conditions noted are these: in vivo.
Series [20] can be described thus: AUClast in mouse at 50 mg/kg, po. The format is ADME, organism-based. The following applies: in vivo.
The nature of series [21]: AUClast in dog at 5 mg/kg, po. The format is ADME, organism-based, Canis lupus familiaris. The conditions noted are these: in vivo.
The nature of series [22]: Half life in mouse at 10 mg/kg, iv. In kind it is ADME, organism-based. The following applies: in vivo.
The target in series [23] is T1, Protein deacetylase HDAC6 (Homo sapiens) (UniProt Q9UBN7).
T1 sequence (whole entry): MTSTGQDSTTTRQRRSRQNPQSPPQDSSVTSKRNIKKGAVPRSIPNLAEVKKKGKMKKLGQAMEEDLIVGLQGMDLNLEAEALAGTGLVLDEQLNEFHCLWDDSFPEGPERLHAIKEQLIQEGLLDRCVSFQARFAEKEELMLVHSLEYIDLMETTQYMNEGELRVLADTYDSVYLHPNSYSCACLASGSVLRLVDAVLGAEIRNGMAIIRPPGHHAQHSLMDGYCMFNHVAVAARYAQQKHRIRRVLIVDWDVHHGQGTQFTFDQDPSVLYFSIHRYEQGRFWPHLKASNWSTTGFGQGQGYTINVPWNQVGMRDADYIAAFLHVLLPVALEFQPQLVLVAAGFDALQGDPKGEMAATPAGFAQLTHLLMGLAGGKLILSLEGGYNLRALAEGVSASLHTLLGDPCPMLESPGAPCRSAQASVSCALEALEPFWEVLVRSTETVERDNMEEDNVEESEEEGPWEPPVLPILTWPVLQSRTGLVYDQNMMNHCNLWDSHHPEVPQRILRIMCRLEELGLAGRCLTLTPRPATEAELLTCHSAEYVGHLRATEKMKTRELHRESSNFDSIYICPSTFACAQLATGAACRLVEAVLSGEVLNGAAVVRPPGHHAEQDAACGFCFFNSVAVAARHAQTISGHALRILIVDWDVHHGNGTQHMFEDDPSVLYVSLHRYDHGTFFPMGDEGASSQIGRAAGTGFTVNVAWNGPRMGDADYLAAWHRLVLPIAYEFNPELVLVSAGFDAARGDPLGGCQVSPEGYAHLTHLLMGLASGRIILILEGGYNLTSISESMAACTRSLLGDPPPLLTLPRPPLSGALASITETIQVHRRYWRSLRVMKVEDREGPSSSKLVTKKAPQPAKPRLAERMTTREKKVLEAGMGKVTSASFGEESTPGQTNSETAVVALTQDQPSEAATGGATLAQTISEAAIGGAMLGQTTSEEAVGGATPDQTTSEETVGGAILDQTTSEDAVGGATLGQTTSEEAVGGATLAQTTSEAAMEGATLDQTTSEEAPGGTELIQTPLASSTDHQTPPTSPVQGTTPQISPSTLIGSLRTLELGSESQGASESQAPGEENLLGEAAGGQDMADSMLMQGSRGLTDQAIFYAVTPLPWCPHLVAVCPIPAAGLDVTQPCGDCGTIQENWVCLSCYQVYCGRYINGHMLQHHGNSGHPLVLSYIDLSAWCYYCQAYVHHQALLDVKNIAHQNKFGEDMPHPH
The series can be described thus: Inhibition of HDAC6 in human HH cells assessed as induction of acetylated H3 accumulation upto 10 uM by Western blot analysis. In kind it is cell-based.

The nature of series [24]: Clearance in monkey at 0.5 mg/kg, iv. The format is ADME, organism-based, Macaca mulatta. The conditions noted are these: rhesus monkey, in vivo.
In series [25] the test system is Mus musculus. The series can be described thus: Antiarthritic activity against collagen-induced arthritis DBA1J mouse model assessed as improvement in arthritis symptoms at 15 mg/kg, sc measured after 21 days. In kind it is functional. The conditions noted are these: time 21 day.
Series [26] relates to Rattus norvegicus. Put plainly: Antiarthritic activity against adjuvant-induced arthritis Lewis rat model assessed as improvement in arthritis symptoms at 50 mg/kg, po measured after 8 days. The format is functional. The following applies: time 8 day.
Series [27] is described as follows: Tmax in monkey at 10 mg/kg, po. In kind it is ADME, organism-based, Macaca mulatta. The following applies: rhesus monkey, in vivo.
Series [28] has as its target T1, Protein deacetylase HDAC6 (Homo sapiens). The series can be described thus: Inhibition of HDAC6 in human HH cells assessed as induction of acetylated tubulin accumulation at 0.3 uM by Western blot analysis. The format is cell-based.
Series [29] is described as follows: Half life in dog at 5 mg/kg, po. The format is ADME, organism-based, Canis lupus familiaris. The conditions noted are these: in vivo.
A short description of series [30]: C0 in monkey at 0.5 mg/kg, iv. In kind it is ADME, organism-based, Macaca mulatta. The following applies: rhesus monkey, in vivo.
The subject of series [31] is Rattus norvegicus. Put plainly: Antiarthritic activity against adjuvant-induced arthritis Lewis rat model at 50 mg/kg, po measured after 8 days. The format is functional, organism-based. The following applies: time 8.0 day.
The nature of series [32]: Half life in dog at 0.5 mg/kg, iv. The format is ADME, organism-based, Canis lupus familiaris. The following applies: in vivo.
Series [33] deals with T2, Protein deacetylase HDAC6 (Homo sapiens, UniProt Q9UBN7).
T2 sequence (Q9UBN7 whole entry): T1 sequence (whole entry)
The series can be described thus: Inhibition of human recombinant HDAC6 using fluorescent peptide p53 (379 to 382 residues) RHKK(Ac) as substrate by fluorescence based analysis.

Another series concerns the target Histone deacetylase 5 (Homo sapiens, UniProt Q9UQL6). The series can be described thus: Inhibition of human recombinant HDAC5 using Boc-Lys(tri-fluoroacetyl)-AMC as substrate by fluorescence based analysis.
Another series concerns the target Histone deacetylase 4 (Homo sapiens, UniProt P56524). Put plainly: Inhibition of human recombinant HDAC4 using Boc-Lys(tri-fluoroacetyl)-AMC as substrate by fluorescence based analysis.
The target of series [34] is T2, Protein deacetylase HDAC6. Put plainly: Inhibition of N-terminal GST-tagged human recombinant HDAC6 expressed in Spodoptera frugiperda incubated for 60 mins by fluorescence based analysis.
A further series addresses Histone deacetylase 9 (Homo sapiens, UniProt Q9UKV0). The series can be described thus: Inhibition of human recombinant HDAC9 using Boc-Lys(tri-fluoroacetyl)-AMC as substrate by fluorescence based analysis.

pIC50: −log10 of the molar value. The source made the active and inactive calls. The calls are words filed in the database; no cut-off is given here. A value given as a limit tells only on which side of the number the result lay.

For orientation: AUC means concentration integrated over time. In general, AUC(0-t) refers to the area under the concentration-time curve up to a stated or last time point. The term bioavailability denotes the share of a dose that reaches the circulation, judged against a reference dose that is usually intravenous. For orientation: Cmax means the peak of the concentration-time curve. Broadly, the half-life is how long it takes for the measured level to halve. The Tmax is the time at which the peak concentration occurs. By AUC(0-inf) is commonly meant the area under the concentration-time curve extrapolated to infinity. As usually defined, the pIC50 is the negative decadic logarithm of the IC50, by convention in mol/L.

Sequence of Histone deacetylase 9 (Q9UKV0 whole entry): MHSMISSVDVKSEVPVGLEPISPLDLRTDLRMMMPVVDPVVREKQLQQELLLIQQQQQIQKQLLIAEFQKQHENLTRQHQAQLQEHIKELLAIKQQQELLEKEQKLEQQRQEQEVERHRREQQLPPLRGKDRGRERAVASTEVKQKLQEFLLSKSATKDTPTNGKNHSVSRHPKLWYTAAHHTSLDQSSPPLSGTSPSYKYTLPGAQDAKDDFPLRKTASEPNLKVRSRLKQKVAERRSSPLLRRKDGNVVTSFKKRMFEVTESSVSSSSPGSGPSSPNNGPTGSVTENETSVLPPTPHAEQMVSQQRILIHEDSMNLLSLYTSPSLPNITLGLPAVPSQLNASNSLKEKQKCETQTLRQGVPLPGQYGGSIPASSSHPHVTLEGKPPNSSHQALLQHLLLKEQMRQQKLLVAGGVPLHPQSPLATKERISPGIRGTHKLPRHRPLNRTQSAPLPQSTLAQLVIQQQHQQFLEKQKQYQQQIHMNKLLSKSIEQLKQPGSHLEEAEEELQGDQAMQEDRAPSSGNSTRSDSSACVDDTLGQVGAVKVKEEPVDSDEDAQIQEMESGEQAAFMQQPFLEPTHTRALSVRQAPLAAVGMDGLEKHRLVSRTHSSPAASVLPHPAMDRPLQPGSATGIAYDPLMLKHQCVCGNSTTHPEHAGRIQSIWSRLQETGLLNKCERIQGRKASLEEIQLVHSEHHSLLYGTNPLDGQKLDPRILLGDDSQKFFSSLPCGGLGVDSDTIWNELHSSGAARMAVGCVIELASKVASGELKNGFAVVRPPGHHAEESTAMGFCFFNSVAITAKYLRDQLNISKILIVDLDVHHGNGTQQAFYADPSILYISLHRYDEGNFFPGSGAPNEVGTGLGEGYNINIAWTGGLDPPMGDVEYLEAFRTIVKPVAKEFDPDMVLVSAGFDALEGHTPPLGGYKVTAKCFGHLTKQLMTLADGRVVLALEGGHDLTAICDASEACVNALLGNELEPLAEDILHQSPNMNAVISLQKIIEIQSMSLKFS
Sequence of Histone deacetylase 4 (P56524 whole entry): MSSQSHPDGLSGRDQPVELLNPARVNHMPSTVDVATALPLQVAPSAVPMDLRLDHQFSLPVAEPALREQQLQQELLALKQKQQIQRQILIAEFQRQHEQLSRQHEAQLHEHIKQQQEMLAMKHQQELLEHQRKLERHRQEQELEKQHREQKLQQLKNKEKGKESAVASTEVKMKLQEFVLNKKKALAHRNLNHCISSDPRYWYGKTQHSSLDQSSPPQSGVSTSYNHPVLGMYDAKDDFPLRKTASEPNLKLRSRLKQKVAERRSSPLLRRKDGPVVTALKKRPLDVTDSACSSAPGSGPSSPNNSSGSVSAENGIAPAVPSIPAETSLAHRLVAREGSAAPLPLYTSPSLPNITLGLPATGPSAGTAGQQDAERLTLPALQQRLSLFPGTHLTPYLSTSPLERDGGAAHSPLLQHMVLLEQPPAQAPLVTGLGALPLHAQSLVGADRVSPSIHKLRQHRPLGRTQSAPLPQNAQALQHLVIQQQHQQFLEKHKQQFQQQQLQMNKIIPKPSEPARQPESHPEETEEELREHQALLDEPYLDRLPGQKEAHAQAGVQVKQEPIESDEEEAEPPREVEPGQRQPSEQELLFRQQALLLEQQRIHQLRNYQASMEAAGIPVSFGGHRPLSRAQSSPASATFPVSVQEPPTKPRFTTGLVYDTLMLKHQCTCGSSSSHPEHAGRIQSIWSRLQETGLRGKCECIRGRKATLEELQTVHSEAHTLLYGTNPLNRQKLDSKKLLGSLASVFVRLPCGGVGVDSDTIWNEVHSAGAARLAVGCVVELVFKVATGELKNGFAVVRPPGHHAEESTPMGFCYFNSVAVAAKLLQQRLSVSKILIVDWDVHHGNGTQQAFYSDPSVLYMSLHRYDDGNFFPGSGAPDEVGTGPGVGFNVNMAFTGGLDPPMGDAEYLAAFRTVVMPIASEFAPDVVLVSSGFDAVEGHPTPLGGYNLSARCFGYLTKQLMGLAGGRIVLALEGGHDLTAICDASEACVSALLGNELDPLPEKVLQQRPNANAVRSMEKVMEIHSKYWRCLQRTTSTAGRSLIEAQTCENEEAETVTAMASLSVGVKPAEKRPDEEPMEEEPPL
Sequence of Histone deacetylase 5 (Q9UQL6 whole entry): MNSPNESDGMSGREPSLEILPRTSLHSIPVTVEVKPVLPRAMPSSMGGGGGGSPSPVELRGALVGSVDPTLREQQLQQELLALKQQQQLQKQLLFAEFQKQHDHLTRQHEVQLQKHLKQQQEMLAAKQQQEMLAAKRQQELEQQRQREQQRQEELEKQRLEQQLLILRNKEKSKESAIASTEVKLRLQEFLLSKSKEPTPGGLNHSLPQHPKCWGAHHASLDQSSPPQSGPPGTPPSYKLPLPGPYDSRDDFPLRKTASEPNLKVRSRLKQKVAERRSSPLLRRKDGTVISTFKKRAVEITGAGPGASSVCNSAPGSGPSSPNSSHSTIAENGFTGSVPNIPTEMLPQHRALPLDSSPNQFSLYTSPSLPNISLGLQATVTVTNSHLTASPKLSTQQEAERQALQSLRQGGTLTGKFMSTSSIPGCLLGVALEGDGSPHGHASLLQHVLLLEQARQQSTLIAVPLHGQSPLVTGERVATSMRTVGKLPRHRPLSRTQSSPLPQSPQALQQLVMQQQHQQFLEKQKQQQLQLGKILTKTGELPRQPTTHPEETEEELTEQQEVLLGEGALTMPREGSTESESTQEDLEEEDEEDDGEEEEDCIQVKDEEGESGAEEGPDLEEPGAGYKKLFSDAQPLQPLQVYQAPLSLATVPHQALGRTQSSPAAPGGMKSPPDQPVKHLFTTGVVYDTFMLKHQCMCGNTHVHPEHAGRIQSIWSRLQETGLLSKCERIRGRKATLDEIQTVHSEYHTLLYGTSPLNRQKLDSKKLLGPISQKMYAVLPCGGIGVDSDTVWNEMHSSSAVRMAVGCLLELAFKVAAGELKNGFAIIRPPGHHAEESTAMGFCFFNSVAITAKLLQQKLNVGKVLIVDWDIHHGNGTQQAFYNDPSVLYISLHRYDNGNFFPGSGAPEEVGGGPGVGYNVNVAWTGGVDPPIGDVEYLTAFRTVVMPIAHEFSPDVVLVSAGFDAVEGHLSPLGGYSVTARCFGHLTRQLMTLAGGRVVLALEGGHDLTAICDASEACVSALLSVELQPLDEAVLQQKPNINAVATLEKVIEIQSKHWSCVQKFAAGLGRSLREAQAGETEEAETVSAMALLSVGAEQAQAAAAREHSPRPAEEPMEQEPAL

For `CC1(C)CC(=O)c2c(C(F)(F)F)nn(Cc3ccc(C(=O)NO)cc3)c2C1`, the AUC in series [1] was determined as 302 ng·h/mL. For the same compound, the outcome in the series with Mus musculus [2] and with Rattus norvegicus [31] was Active. For the same compound, the AUC(0-t) in series [3] came to 299 ng·h/mL; in [17], 1200 ng·h/mL; in [19], 446 ng·h/mL; in series [20], 1140 ng·h/mL; in series [21], 1090 ng·h/mL. The figures for the bioavailability in series [4], in [10] and in series [15] were 11.2%, 25.1% and 19%, respectively. In addition, the Cmax was found to be 1030 ng/mL in series [5] and 2080 ng/mL in series [6]. In addition, the half-life in [7] was 18.6 min; in series [12] it was 83.4 min; in [22], 17.4 min; in series [29] it was 84 min; in series [32] it was 36 min. Also, the Tmax in [8] came out at 24 min; in series [14], 4.98 min; in series [27], 2 h. In addition, the Activity with Rattus norvegicus [9] stood at 97.9%; with Mus musculus [25], 53%; with Rattus norvegicus [26], 59.6%. Also, the AUC(0-inf) in series [11] stood at 1210 ng·h/mL; in [13], 1150 ng·h/mL; in series [16], 458 ng·h/mL; in [18] it was 339 ng·h/mL. The inhibition entry in [23] is “inactive”. The same compound came in with a CL in series [24] of 3.34 L/h/kg. Moreover, in series [28], the inhibition result was “Active”. Besides, the C0 in series [30] came out at 1040 ng/mL.

On to `O=C(NO)c1ccc(Cn2c3c(c4ccccc42)C(=O)CCC3)cc1`, for which the pIC50 in series [33] is 7.46; on Histone deacetylase 5 it was below 4.70; on Histone deacetylase 4 it was below 4.70; in [34], 7.80; at Histone deacetylase 9, below 4.70.
